Values quoted from earlier work in patent US20060269513A1, “Pheromone composition” (Kiotech Limited, priority 1997, published 2006).

Test system: humans
Conditions: human olfactory threshold

Row | Structure (SMILES) | Threshold concentration for humans (odour)
1 | CCCCC(C)CCC(=O)O (stereo not shown) [4-Methyloctanoic acid] | in the region of ppb
2 | C[C@]12CC[C@@H](O)C[C@@H]1CC[C@@H]1[C@@H]2CC[C@]2(C)C=CC[C@@H]12 [5-alpha-androst-16-en-3-α-ol] | in the low ppb range
3 | CN(C)C [Trimethylamine] | about 1 ppb
4 | NCCCCN [putrescine, 1,4-diaminobutane] | in the ppb range
